One series has as its system buckhorn plantains. Put plainly: Field testing control of buckhorn plantain in North Carolina (Example 4). It is filed as in vivo. The following applies: Table 5 (FIG. 5). On the procedure: The formulations were applied at a rate of 200 gpa onto sections of a plot containing buckhorn plantains and other weeds in North Carolina, U.S.A. A second application of the formulations was made 21 days following the initial application. The sections were visually inspected and rated over the course of 56 days following the initial application. Performance of the formulations was evaluated based on the percentage control of the buckhorn plantains observed in each section.

For series [1], the system named is Dandelions. Nature of the series: Field testing control of dandelions in Ontario (Example 5). The series is classed as in vivo. The following applies: Table 6 (FIG. 6), 200 gpa, rated 10 and 30 days following application. The protocol:
Formulations containing IBA, DTPA, and combinations of IBA with various chelating agents including salts of DTPA, EDTA, ethylenediamine-N,N′-disuccinic acid (EDDS), N-(hydroxyethyl)-ethylenediaminetriacetic acid (HEDTA), and lignosulfonic acid were prepared as detailed in Table 6 the solutions were prepared in water at the concentrations indicated ([…]). The formulations were applied at a rate of 200 gpa onto sections of a plot containing dandelions and other weeds in Ontario, Canada. Injuries to the grass and dandelions were visually inspected and rated 10 days and 30 days following application of the formulations. Performance of the formulations was evaluated based on the percentage of control of the dandelions observed. Injuries to the grass were also rated using a 0-10 scale: 0=no injury; 10=plant dead, severe injury.

Series [2] has as its system Dandelions. Put plainly: Control of dandelions in greenhouse study (Example 2, IBA/EDTA). The series is classed as in vivo. The conditions noted are these: for control on weeds: Table 3 (FIG. 3), greenhouse, 200 gpa, result in words; for effect on weeds at concentrations greater than 5% by weight / herbicidal effect at concentrations lower than 5% by weight: tested alone; for effect on weeds at concentrations greater than 5% by weight: Table 3; for herbicidal effect at concentrations lower than 5% by weight: Table 3 (IBA: Tr 2-4). The protocol:
(§1) Dandelions and Kentucky Bluegrass were seeded and grown in the greenhouse for at least 10 weeks before treatment. Ready-to-use formulations containing indole-3-butyric acid (IBA) and ethylenediaminetetraacetic acid (EDTA), including ethylenediaminetetraacetic acid tetrasodium salt (EDTA Na4), ethylenediaminetetraacetic acid disodium salt (EDTA Na2), and ethylenediaminetetraacetic acid calcium sodium salt, and combinations of IBA and a chelator were prepared as detailed in Table 3 with the remainder of the formulation being comprised of water. IBA was initially dissolved in KHCO3 when the acid could not be dissolved directly and then diluted in water to the concentration indicated (this is indicated below in Table 3 by the label IBA-K). The prepared formulations were applied to sections of the dandelion and Kentucky Bluegrass plots at a rate of 200 gallons per acre (gpa).
(§2) Injuries to the grass and weeds were visually inspected and rated for 4 weeks using a 0-10 scale: 0=no injury; 10=plant dead. For turfgrass, ratings greater than 3 indicated unacceptable phytotoxicity. The numbers indicate the maximum effect observed on the various plants. When regrowth of the plants following application was observed, it is noted in the table following the overall injury score.

Another series concerns Kentucky Bluegrass. Put plainly: Injury to Kentucky Bluegrass in greenhouse study (Example 2, IBA/EDTA). The series is classed as in vivo. The conditions noted are these: tested alone, Table 3. On the procedure:
as §1, §2

Series [3] is described as follows: Solubility of IBA in aqueous solutions (Example 9). The series is classed as physicochemical. An excerpt:
The solubility of IBA and its salts was investigated in various aqueous solutions under different pH conditions. The effect of chelators such as EDTA and HEDTA on the solubility of IBA was also investigated. The data provided further evidence of the relatively limited water solubility of the IBA acid (<0.1%).

The nature of series [4]: Dissolving IBA when preparing formulations (Example 2). The series is classed as physicochemical. The following applies: Treatment 10, 12 and 14 of Table 3. The protocol:
as §1

Where only a bound is given, the exact number is not on record here.

Take `O=C(O)CN(CCN(CC(=O)O)CC(=O)O)CCN(CC(=O)O)CC(=O)O` [DTPA, diethylenetriaminepentaacetic acid]: in the series with buckhorn plantains, the “time after which the weeds began to exhibit regrowth” value is given as greater than 25 days. For the same compound, the “control on the buckhorn plantains” value in the series on buckhorn plantains (200 gpa, second application after 21 days, rated over 56 days) is reported as “moderate control”. The “control of the dandelions” value with Dandelions [1] is “moderate control”.
On to `O=C(O)CN(CCN(CC(=O)O)CC(=O)O)CC(=O)O` [EDTA, ethylenediaminetetraacetic acid], for which, in the series with Dandelions [2], the control on weeds result was “low to moderate control”, the “effect on weeds at concentrations greater than 5% by weight” value is reported as “burns the leaves of weeds” and the “herbicidal effect at concentrations lower than 5% by weight” value is on record as “limited herbicidal effect”. Moreover, the “regrowth of the weeds” value in the series with Dandelions [2] (Table 3, after application) was “grow back after 14 or 28 DAT”.
With `O=C(O)CCCc1c[nH]c2ccccc12` [IBA, indole-3-butyric acid], in the series on Dandelions [2], the control on weeds result is “low to moderate control”, the “effect on weeds at concentrations greater than 5% by weight” value is given as “exhibited control of the weeds” and the “herbicidal effect at concentrations lower than 5% by weight” value is on record as “limited herbicidal effect”. For the same compound, the “injury to the grass at concentrations greater than 5% by weight” value with Kentucky Bluegrass is on record as “severe injury”. The “control of the dandelions” value in the series on Dandelions [1] was “moderate control”. Besides, in series [3] (1% solution of IBA), the “dissolution of a 1% solution under alkaline conditions” value is “dissolves well” and the “pH at which a 1% solution was stable” value is greater than 6. Besides, the water solubility in series [3] (IBA acid in water) was less than 0.1%. The “dissolution of IBA in EDTA-Na4” value in series [4] is on record as “can be dissolved in EDTA-Na4 directly without addition of KHCO3”.

These data come from patent publication US11910795B2, “Natural indole auxin and aminopolycarboxylic acid herbicidal compositions” (Suncor Energy Inc., priority 2013, dated 2024).
